Four molecules from patent US5635379A, “D-2-alkyl-tryptophan and peptides containing same” (Deghenghi; Romano, priority 1990, dated 1997) can be followed below.

In data set [1] the test system is plasma testosterone. It is filed as in vivo, Beagle dogs. From the text:
After an initial flare-up, plasma testosterone fell below castration levels after approximately 10 days, and was maintained for approximately 180 days.

The nature of data set [2]: Stability of D-Trp and D-2-methyl-Trp in 1% solutions, peak area by HPLC. It is filed as physicochemical. The following applies: pH 2.2 citrate buffer, dark, helium (FIG. 1) and pH 5.4 acetate buffer, oxygen, constant light (FIG. 2).
The test system of data set [3] is pituitary cell monolayers. In words: GH-releasing activity in pituitary cell culture (monolayers). It is filed as cell-based, Sprague Dawley rats. The following applies: for GH in medium: 2 hours incubation. On the procedure:
(§1) Male Sprague Dawley rats (Charles River, Calco, Italy) of 2-3 months of age were used. Rats were housed at 22 +2° C., with lighting cycle of 14 h light: 10 h dark (lights on from 06.00 to 20.00 h), at least 10 days before starting the experiments. A standard dry diet and water were available ad libitum.
Pituitary tissue used for cell dissociation included only the anterior lobe. Briefly, pituitary glands were collected in sterile F-10 medium and after cutting into small fragments incubated twice (30 minutes each) at 37° C. in F-10 medium containing 6% fetal calf serum and collagenase (2.5 mg/ml) (Boehringer, Mannheim GmbH, Germany). Fragments were then washed in Dulbecco's PBS, Ca^2+ and Mg^2+ free medium and mechanically dissociated. Single cell suspension was planted onto 24-well (2×10^5 cells/well) culture plates. The cells were incubated in F-10 medium supplemented with 10% horse serum, 4% fetal calf serum and gentamycin (25 μg/ml), in a humidified atmosphere of 5% CO2 and 95% air at 37° C.
After 3 days, the medium was removed and the cells washed twice with serum free F-10, then incubated with 1 ml of F-10 containing 0.1% BSA only, or with added various concentrations of synthetic peptides.
After incubation for 2 h at 37° C., media were collected and stored frozen at -20° C. until assayed for measurement of GH content.
(§2) Medium and plasma GH was measured by radioimmunoassay using materials supplied by the NIADDK Bethesda, Md. Values were expressed in term of NIASSK-rat-GH-RP-2 standard (potency 2 IU/ml), as ng/ml of medium or plasma.
(§3) The minimum detectable value of rat was 1.0 ng/ml; intra-assay variability was 6%. To avoid inter-assay variation, samples from each experiment were assayed simultaneously.

Data set [4] has as its system GH release. Nature of the data set: GH-releasing activity i.v. in male rats anesthetized with ketamine and xilazine. Type of data set: in vivo, Sprague Dawley rats. Here is the method: as §1
(§4) Between 09.00-10.00 h rats were anesthetized with ketamine (58 mg/kg, Inoketam, VIRBAC, Milano) and xilazine (12 mg/kg, Rompun, Bayer, Milano). Thirty minutes later, a blood sample ([…]) was withdrawn from the exposed jugular vein, peptides were injected intravenously or subcutaneously, and further blood samples were collected 10, 20 and 30 minutes later.
as §2, §3

For data set [5], the system named is GH release. Nature of the data set: GH-releasing activity s.c. in male rats anesthetized with ketamine and xilazine. It is filed as in vivo, Sprague Dawley rats. Here is the method:
as §1, §4, §2, §3

Data set [6] has as its system GH release. Nature of the data set: GH release in pentobarbital-anesthetized rats, s.c. It is filed as in vivo, Sprague Dawley rats. On the procedure: Male Sprague Dawley rats weighing 225-250 g were divided in groups of five animals each. Rats were anesthetized with Nembutal injected intraperiteonally at 50 mg/kg, fifteen minutes prior to the first blood withdrawal taken over heparin by cardiac puncture (for determination of basal GH).
Subcutaneous injections of either HEXARELIN or GHRP-6 were given immediately after the first blood collection, and additional blood samples were collected 15 and 40 minutes later.
Measurement of rat GH was performed by a standard double antibody radioimmunoassay with reagents supplied by the National Pituitary Agency and the National Institute of Arthritis, Diabetes, and Digestive and Kidney Diseases. The standards used were NIADDK-NIH-rGH-RP-2. Statistical data were obtained with the Student's t Test at a significance level of 5%.

A short description of data set [7]: Acute cardiovascular toxicity in the rat, single i.v. dose, mortality. Type of data set: in vivo. The following applies: observed up to 4 hours. On the procedure: These two peptides were also tested for acute cardiovascular toxicity in the rat.
Dosages were calculated on the basis of the declared peptide content in each product, as specified below:
A single dose of HEXARELIN or GHRP-6 was administered to rats in different calendar dates in such a way that each group/dose should be treated in two subsequent days.
For each compound, appropriate amounts of solutions in 0.9% NaCl for injection were prepared just before treatment at the suitable concentrations. The solutions were sterilized by filtration (Millipore filter, pore size 0.22 μm). Owing to the type of the study (acute study) in which formulates were administered just after preparation, stability checks were not performed. Concentration checks were also not performed. The volume of solution injected was maintained constant at 1 ml/Kg.
The intravenous injections were done as a single dose in one vein of the tail with an appropriately gauged sterile, disposable, plastic syringe. The injection rate was about 0.1 ml/sec.
Periodical observations were made up to 4 hours after treatment. Abnormality and mortality were recorded. Body weight was recorded once during pre-trial and on the administration day to calculate the volumes to be injected.

In data set [8] the test system is GH release. In words: GH response in conscious, freely-moving rats after antiserum pretreatment and i.v. peptide. It is filed as in vivo. The following applies: i.v. 25 μg/kg peptide, pooled over antiserum pretreatments. Here is the method:
Sixty male rats were prepared with indwelling venous catheters under ether anesthesia three days before experimentation. On the day of experimentation, all animals were given an iv heparin injection (100 IU; 0630 h). At 0700 h, animals were treated with 0.5 ml of either normal serum (control-as), somatostatin antiserum (somatostatin-as; 0.25 ml+0.25 ml saline), growth hormone-releasing hormone antiserum (GHRH-as; 0.25 ml+0.25 ml saline), or both somatostatin antiserum and growth hormone-releasing hormone antiserum (0.25 ml somatostatin-as+0.25 ml GHRH-as). Blood sampling began […] after antiserum pretreatment, with blood samples collected every 20 minutes for three hours. After the 180 minute sample (1100 h), animals were treated iv with 25 μg/kg of either Hexarelin or GHRP-6. Blood samples were then collected at 5, 10, 15, 20 30, 40, and 60 minutes after peptide treatment. All samples were centrifuged immediately and the plasma frozen until assayed. The peak GH response to Hexarelin and GHRP-6 as well as the area under the response curves (AUCs) for the thirty minutes following peptide injection were calculated. Data were subjected to repeated measures analysis of variance and are expressed as mean ±SEM.

Setting [9] is: PLGA implant rods, 20 or 25% loading (7 or 10 mg), subcutaneous.

“Pyro-Glu-His-Ser-Tyr-D-2-alkyl-Trp-Leu-Arg-Pro-NHCH2 CH3 [Example 3]”: in data set [1] (setting [9]), the “time plasma testosterone was maintained below castration levels” value is on record as “approximately 180 days” and the “time until plasma testosterone fell below castration levels” value is “approximately 10 days”. The “response to stimulation by i.v. administration of the peptide” value in data set [1] (day 145 after implant) is given as “absence of response”. Further, in data set [1] (dog, in vivo, sc), the “clinical side effects” value is given as “No clinical side effects were observed”.

Regarding `N[C@H](Cc1c[nH]c2ccccc12)C(=O)O` [D-Trp, D-Tryptophan, reference compound], the “time the compound is stable in solution (HPLC peak area)” value in data set [2] was “about 20 days”.

With `Cc1[nH]c2ccccc2c1C[C@@H](N)C(=O)O` [Example 1, 2-methyl-D-tryptophan], the “time the compound is stable in solution (HPLC peak area)” value in data set [2] is reported as not below 60 days.

For GHRP-6 [reference compound], the values for the GH in medium in data set [3] (10^-6 M), in data set [3] (10^-7 M) and in data set [3] (10^-8 M) were 510.0 ± 12.0 ng/well, 526.5 ± 19.0 ng/well and 544.2 ± 23.9 ng/well, respectively. In addition, in data set [3] (10^-8 to 10^-6 M, two hours), the “GH secretion versus basal” value is listed as “stimulation of GH secretion over basal secretion”. Besides, the “plasma GH” value was determined as 394.0 ± 31.0 ng/mL in data set [4] (i.v. 150 μg/kg, 10 min); 139.3 ± 10.2 ng/mL in data set [4] (i.v. 150 μg/kg, 20 min); 42.5 ± 4.5 ng/mL in data set [4] (i.v. 150 μg/kg, 30 min); 30.2 ± 7.8 ng/mL in data set [4] (i.v. 150 μg/kg, time 0 min (before injection)); 413.6 ± 21.5 ng/mL in data set [4] (i.v. 300 μg/kg, 10 min); 162.7 ± 22.1 ng/mL in data set [4] (i.v. 300 μg/kg, 20 min). Further, the “plasma GH” value amounted to 38.2 ± 7.7 ng/mL in data set [4] (i.v. 300 μg/kg, 30 min); 21.9 ± 4.4 ng/mL in data set [4] (i.v. 300 μg/kg, time 0 min (before injection)); 542.0 ± 38.0 ng/mL in data set [4] (i.v. 600 μg/kg, 10 min); 195.5 ± 11.0 ng/mL in data set [4] (i.v. 600 μg/kg, 20 min); 21.2 ± 6.1 ng/mL in data set [4] (i.v. 600 μg/kg, time 0 min (before injection)); 63.1 ± 11.0 ng/mL in data set [5] (s.c. 150 μg/kg, 10 min). Further, the “plasma GH” value in data set [5] (s.c. 150 μg/kg, 20 min) was determined as 110.4 ± 18.0 ng/mL; in data set [5] (s.c. 150 μg/kg, 30 min), 77.2 ± 14.0 ng/mL; in data set [5] (s.c. 150 μg/kg, time 0 min (before injection)) it was 20.0 ± 5.0 ng/mL; in data set [5] (s.c. 300 μg/kg, 10 min), 63.9 ± 12.8 ng/mL; in data set [5] (s.c. 300 μg/kg, 20 min), 123.4 ± 14.6 ng/mL; in data set [5] (s.c. 300 μg/kg, 30 min), 87.7 ± 11.8 ng/mL. Further, the “plasma GH” value in data set [5] (s.c. 300 μg/kg, time 0 min (before injection)) is 20.0 ± 6.0 ng/mL; in data set [5] (s.c. 600 μg/kg, 10 min), 93.1 ± 22.3 ng/mL; in data set [5] (s.c. 600 μg/kg, 20 min), 167.1 ± 14.7 ng/mL; in data set [5] (s.c. 600 μg/kg, 30 min) it was 107.8 ± 9.5 ng/mL; in data set [5] (s.c. 600 μg/kg, time 0 min (before injection)) it was 18.0 ± 4.0 ng/mL. In addition, the “POST-DRUG PLASMA GH” value was found to be 41 ± 16 ng/mL in data set [6] (s.c. 25 μg/kg, 0 min (basal)); 222 ± 95 ng/mL in data set [6] (s.c. 25 μg/kg, 15 min); 110 ± 47 ng/mL in data set [6] (s.c. 25 μg/kg, 40 min); 57 ± 39 ng/mL in data set [6] (s.c. 50 μg/kg, 0 min (basal)); 262 ± 58 ng/mL in data set [6] (s.c. 50 μg/kg, 15 min); 97 ± 44 ng/mL in data set [6] (s.c. 50 μg/kg, 40 min). For the same molecule, the “Dead rats/Total N° of rats per group” value is reported as 0/6 in data set [7] (single i.v. dose 2.5 mg/kg), 1/6 in data set [7] (single i.v. dose 5.0 mg/kg) and 2/6 in data set [7] (single i.v. dose 7.5 mg/kg). Besides, the “Mean GH” value in data set [8] amounted to 131 ± 13 ng/mL. Moreover, the “Peak GH” value in data set [8] is 293 ± 41 ng/mL. For the same molecule, the “GH AUC” value in data set [8] (thirty minutes following injection) amounted to 4220 ± 665 ng/ml/30 min.
